Results taken from publication PMC9264368, “Structural Analysis and Development of Notum Fragment Screening Hits” (ACS Chemical Neuroscience, 2022).
Read-outs that look alike come from different tables or passages of the source.

Legend:
Notum [1] = biological target: T1, Notum (Homo sapiens, UniProt Q6P988, C330S); details: for fold improvement in Notum inhibition: versus parent: 7 vs 26, 16a vs 16, 15a vs 15, 7c vs 7b; for IC50: read-out: Notum IC50, Table S1, mean ± s.d. of N = 2-4 unless stated; for LE (ligand efficiency): LE = 1.4(−pIC50)/HAC; for LLE (lipophilic ligand efficiency): LLE = pIC50 – clogP; for LE / LLE: supplementary CSV
T1 sequence (Q6P988 81-451 C330S): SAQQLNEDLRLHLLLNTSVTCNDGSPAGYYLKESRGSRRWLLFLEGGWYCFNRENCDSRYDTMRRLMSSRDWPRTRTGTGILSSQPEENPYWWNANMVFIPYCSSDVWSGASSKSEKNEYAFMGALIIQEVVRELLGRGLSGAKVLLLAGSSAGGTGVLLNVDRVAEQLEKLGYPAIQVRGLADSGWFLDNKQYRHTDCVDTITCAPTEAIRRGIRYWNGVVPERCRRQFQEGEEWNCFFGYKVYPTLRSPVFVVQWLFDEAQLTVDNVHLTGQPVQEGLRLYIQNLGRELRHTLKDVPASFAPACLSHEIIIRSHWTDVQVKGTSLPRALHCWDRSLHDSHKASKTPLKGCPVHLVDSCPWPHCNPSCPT

Notum [2] = biological target: T1, Notum; assay: biochemical
[3] = Notum IC50, OPTS substrate, 10-point curves 30 nM to 1 mM, mean ± s.d. of N = 2–4 unless stated, Table 1 and figures
[4] = IC50 (µM), supplementary CSV, Notum IC50 values for 1–58
[5] = pIC50, Table 1, Notum OPTS assay

Row | SMILES | IC50 (Notum [2]; [3]) [µM] | LE (ligand efficiency) (Notum [1]) | LLE (lipophilic ligand efficiency) (Notum [1]) | LE (Notum [1]) | LLE (Notum [1]) | further results
1 | OCc1cn(-c2ccc(Cl)c(C(F)(F)F)c2Cl)nn1 [7c] | – | – | – | – | – | fold improvement in Notum inhibition (Notum [1]): 7 fold
2 | Cn1c(NC#N)nc2ccccc21 [15b] | – | – | – | – | – | IC50 (Notum [1]): 5 ± 0.77 µM
3 | N#CNc1nc2c(Cl)cccc2[nH]1 [15c] | – | – | – | – | – | IC50 (Notum [1]): 2.2 ± 0.31 µM
4 | N#CNc1nc2c(Br)cccc2[nH]1 [15d] | – | – | – | – | – | IC50 (Notum [1]): 2.3 ± 0.54 µM
5 | N#CNc1nc2c(C(F)(F)F)cccc2[nH]1 [15e] | – | – | – | – | – | IC50 (Notum [1]): 12 ± 1.4 µM
6 | COc1cccc2[nH]c(NC#N)nc12 [15f] | – | – | – | – | – | IC50 (Notum [1]): 14 ± 1.3 µM
7 | Cc1ccc2[nH]c(NC#N)nc2c1 [15g] | – | – | – | – | – | IC50 (Notum [1]): 100 ± 4.4 µM
8 | N#CNc1nc2cc(Cl)ccc2[nH]1 [15h] | – | – | – | – | – | IC50 (Notum [1]): 29 ± 16 µM
9 | N#CNc1nc2cc(Br)ccc2[nH]1 [15i] | – | – | – | – | – | IC50 (Notum [1]): 15 ± 3.7 µM
10 | N#CNc1nc2cc(C(F)(F)F)ccc2[nH]1 [15j] | – | – | – | – | – | IC50 (Notum [1]): 36 ± 5.7 µM
11 | Cc1cccc2c1nc(NC#N)n2C [15k] | – | – | – | – | – | IC50 (Notum [1]): 9.3 ± 3.8 µM
12 | Cc1cccc2nc(NC#N)n(C)c12 [15l] | – | – | – | – | – | IC50 (Notum [1]): 2.2 ± 0.48 µM
13 | Cc1ccc2[nH]c(NC#N)nc2c1C [15m] | – | – | – | – | – | IC50 (Notum [1]): 18 ± 5.1 µM
14 | CCNC(=O)Nc1cc(C)on1 [compound 1] | > 1000 | – | – | – | – | IC50 (Notum [2]; [4]): > 1000 µM
15 | CC(=O)Nc1cccc2nonc12 [compound 2] | 140 ± 31 | 0.42 | 2.5 | 0.42 | 2.5 | –
16 | OCc1ccc(-n2cnc3ccccc32)cc1 [compound 4, [4-(1H-1,3-Benzimidazol-1-yl-)phenyl]methanol] | 54 ± 16 | 0.35 | 1.7 | 0.35 | 1.7 | –
17 | c1cnc(Oc2ccc(-c3cc[nH]n3)cc2)nc1 [compound 5, 2-[4-(1H-Pyrazol-3-yl)phenoxy]pyrimidine] | 480 ± 82 | 0.25 | 1.3 | 0.25 | 1.3 | –
18 | COC(=O)c1ccccc1Oc1ccc(N)cc1 [compound 6, Methyl 2-(4-aminophenoxy)benzoate] | 260 ± 120 | 0.28 | 0.9 | 0.28 | 0.9 | –
19 | O=C(NCCc1ccncc1)NC1CCCCC1 [compound 9] | > 1000 | – | – | – | – | IC50 (Notum [2]; [4]): > 1000 µM
20 | Cc1nc2ccccn2c1C(=O)NCC(C)C [compound 10] | 700 ± 100 | 0.26 | 0.6 | 0.26 | 0.6 | –
21 | Nc1ccc(S(=O)(=O)Nc2ccccn2)cc1 [compound 11, 4-Amino-N-(2-pyridin-2-yl)benzenesulfonamide] | > 1000 | – | – | – | – | IC50 (Notum [2]; [4]): > 1000 µM
22 | N#Cc1ccc(Cn2cnc3ccccc32)cc1 [compound 12, 4-(Benzimidazol-1-ylmethyl)benzonitrile] | 570 ± 20 | 0.25 | 0.7 | 0.25 | 0.7 | –
23 | Nc1ccccc1OCc1ccccc1 [compound 13, 2-(Benzyloxy)aniline] | 280 ± 110 | 0.33 | 0.6 | 0.33 | 0.6 | –
24 | O=C(O)Cc1ccc(-c2ccccc2)cc1 [compound 14, 2-[(1,1’-Biphenyl)-4-yl]acetic acid] | 58 ± 8.2 | 0.33 | 0.9 | 0.33 | 0.9 | –
25 | N#CNc1nc2ccccc2[nH]1 [compound 15] | 17 ± 0.9 | 0.56 | 3.5 | – | 3.5 | –
26 | Oc1c(F)cc(F)cc1-c1cc[nH]n1 [compound 16] | 3.3 ± 0.4 | 0.55 | 3.6 | 0.55 | 3.6 | IC50 (Notum [2]; [5]): 3.16 µM

Row | SMILES | IC50 (Notum [2]; [3]) [µM] | LE (ligand efficiency) (Notum [1]) | LLE (lipophilic ligand efficiency) (Notum [1]) | LE (Notum [1]) | LLE (Notum [1]) | further results
27 | COc1ccc(-c2cc[nH]n2)c(O)c1 [compound 17] | 34 ± 5.7 | 0.51 | 2.9 | 0.51 | 2.9 | IC50 (Notum [2]; [5]): 31.6 µM
28 | Nc1ccc(NCc2cccnc2)c(C(=O)O)c1 [compound 18] | 63 ± 12 | 0.32 | 3.0 | 0.32 | 3 | –
29 | C[C@H]1CCCCN1C(=O)N1CCOCC1 [compound 19] | 750 ± 17 | 0.29 | 1.2 | 0.29 | 1.2 | –
30 | Nc1nonc1N1CCCCC1 [compound 20] | 110 ± 21 | 0.46 | 2.7 | 0.46 | 2.7 | IC50 (Notum [2]; [5]): 126 µM
31 | Cc1ccc(CN(C)Cc2ccccc2)o1 [compound 21] | 930 ± 69 | 0.26 | -0.4 | 0.26 | -0.4 | –
32 | CCOc1cccc(-c2nnc(N)s2)c1 [compound 22] | 93 ± 7 | 0.38 | 1.8 | 0.38 | 1.8 | IC50 (Notum [2]; [5]): 100 µM
33 | N#CCN1CCN(c2cccc(Cl)c2)CC1 [compound 23] | 600 ± 59 | 0.28 | 0.7 | – | 0.7 | –
34 | NCc1cc(-c2ccccc2)no1 [compound 24] | 12 ± 3.2 | 0.53 | 3.7 | 0.53 | 3.7 | –
35 | CC(=O)Nc1ccc(Nc2ccccc2)cc1 [compound 25, N-(4-Anilinophenyl)acetamide] | 86 ± 21 | 0.36 | 1.6 | 0.36 | 1.6 | –
36 | CC(=O)Nc1ccc(OCC(=O)O)cc1 [compound 27, (4-Acetamidophenoxy)acetic acid] | > 1000 | – | – | – | – | IC50 (Notum [2]; [4]): > 1000 µM
37 | c1ccc(CNCc2ccc3c(c2)OCO3)nc1 [compound 28, 1-(Benzo[d][1,3]dioxol-5-yl)-N-(pyridine-2-ylmethyl)methanamine] | 54 ± 6.2 | 0.33 | 3.2 | 0.33 | 3.2 | –
38 | O=C(NO)OCc1ccccc1 [compound 29, Benzyl N-hydroxycarbamate] | – | – | – | – | – | response in fluorescence in Notum OPTS assay (Notum [1]; at higher concentrations (>100 μM), likely assay interference): variable, supramaxial responses in fluoresence
39 | O=S1(=O)CCN(Cc2ccco2)CC1 [compound 30] | > 1000 | – | – | – | – | IC50 (Notum [2]; [4]): > 1000 µM
40 | CCc1ccc(OCC(=O)N2CCCCC2)cc1 [compound 31] | 120 ± 30 | 0.30 | 0.7 | 0.3 | 0.7 | –
41 | c1cc2c(cc1CNC[C@H]1CCCO1)OCO2 [compound 32] | ~1000 | 0.25 | 0.9 | 0.25 | 0.9 | IC50 (Notum [2]; [4]): 1000 µM
42 | Nc1ccccc1Nc1ccccn1 [compound 33] | 500 ± 64 | 0.33 | 1.6 | 0.33 | 1.6 | –
43 | NNC(=O)c1ccccc1OCc1ccccc1 [compound 34] | 330 ± 11 | 0.27 | 1.4 | 0.27 | 1.4 | –
44 | COCC(=O)Nc1nc(-c2ccccc2)cs1 [compound 35] | 120 ± 24 | 0.32 | 1.6 | 0.32 | 1.6 | –
45 | Cl.Oc1c(CN2CCOCC2)ccc2ccccc12 [compound 37] | 58 ± 19 | 0.33 | 1.9 | 0.33 | 1.9 | –
46 | CC1CCN(Cc2c[nH]c3ccccc23)CC1 [compound 38] | 120 ± 49 | 0.32 | 0.2 | 0.32 | 0.2 | –
47 | O=C(O)COc1ccc(N2C(=O)CCC2=O)cc1 [compound 39] | > 1000 | – | – | – | – | IC50 (Notum [2]; [4]): > 1000 µM
48 | CCC(=O)Nc1ccc(C)cc1O [compound 42] | > 1000 | – | – | – | – | IC50 (Notum [2]; [4]): > 1000 µM
49 | CCOc1ccc(CC(=O)O)cc1 [compound 48] | > 1000 | – | – | – | – | IC50 (Notum [2]; [4]): > 1000 µM
50 | O=C(O)COCc1ccccc1 [compound 52] | > 1000 | – | – | – | – | IC50 (Notum [2]; IC50 (µM)): > 1000 µM
51 | O=C1CN(C(=O)COc2ccccc2)CCN1 [compound 56] | > 100 | – | – | – | – | IC50 (Notum [2]; [4]): > 100 µM

Now from value to molecule, other results behind:

Row | IC50 (Notum [2]; [3]) [µM] | LE (ligand efficiency) (Notum [1]) | LLE (lipophilic ligand efficiency) (Notum [1]) | LE (Notum [1]) | LLE (Notum [1]) | SMILES | further results
52 | 0.94 ± 0.06 | – | – | – | – | Cc1cccc2[nH]c(NC#N)nc12 [15a, N-(4-Methyl-1H-benzo[d]imidazol-2-yl)cyanamide] | fold improvement in Notum inhibition (Notum [1]): 18 fold
53 | 1.4 ± 0.1 | – | – | – | – | FC(F)(F)c1cc(-c2cc[nH]n2)ccc1Cl [16a] | fold improvement in Notum inhibition (Notum [1]): 2.3 fold
54 | 16 ± 1.5 | – | – | – | – | FC(F)(F)c1cc(CNCc2ccc3c(c2)OCO3)ccc1Cl [28a, 1-(Benzo[d][1,3]dioxol-5-yl)-N-(4-chloro-3-(trifluoromethyl)benzyl)methanamine] | –
